Laboratory results: PubChem BioAssay AID2060607 (Molecular Pharmacology Branch, DTP, NCI, 2025)

Tested on: 876862-298-R-J1-PDC complex spheroids, viability % test/control
Assay: Anticancer human tumor 876862-298-R-J1-PDC patient-derived endometrial carcinoma cell line growth inhibition [CLK]
Conditions: for IC50: curve of first compound; for viability, T/C: stronger effect = lower value
Outline: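 Patient-derived tumor cells grown as complex spheroids with HUVEC endothelial cells and mesenchymal stem cells, treated with drug combinations. Concentrations descend in half-log steps from near clinical Cmax, or from 10 microM if Cmax unknown.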

[1] = second compound 0.0316 µM, first compound 0.0316 µM
[2] = second compound 0.0316 µM, first compound 0.1 µM
[3] = second compound 0.1 µM, first compound 0.0316 µM
[4] = second compound 0.1 µM, first compound 0.1 µM
[5] = second compound 0.316 µM, first compound 0.0316 µM
[6] = second compound 0.316 µM, first compound 0.1 µM
[7] = second compound 1 µM, first compound 0.0316 µM
[8] = second compound 1 µM, first compound 0.1 µM
[9] = second compound 3.16 µM, first compound 0.0316 µM
[10] = second compound 3.16 µM, first compound 0.1 µM
[11] = second compound 10 µM, first compound 0.0316 µM
[12] = second compound 10 µM, first compound 0.1 µM
[13] = second compound 0.0316 µM, first compound 0.316 µM
[14] = second compound 0.0316 µM, first compound 1 µM
[15] = second compound 0.0316 µM, first compound 3.16 µM
[16] = second compound 0.0316 µM, first compound 10 µM
[17] = second compound 0.1 µM, first compound 0.316 µM
[18] = second compound 0.1 µM, first compound 1 µM
[19] = second compound 0.1 µM, first compound 3.16 µM
[20] = second compound 0.1 µM, first compound 10 µM
[21] = second compound 0.316 µM, first compound 0.316 µM
[22] = second compound 0.316 µM, first compound 1 µM
[23] = second compound 0.316 µM, first compound 3.16 µM
[24] = second compound 0.316 µM, first compound 10 µM
[25] = second compound 1 µM, first compound 0.316 µM
[26] = second compound 1 µM, first compound 1 µM
[27] = second compound 1 µM, first compound 3.16 µM
[28] = second compound 1 µM, first compound 10 µM
[29] = second compound 3.16 µM, first compound 0.316 µM
[30] = second compound 3.16 µM, first compound 1 µM
[31] = second compound 3.16 µM, first compound 3.16 µM
[32] = second compound 3.16 µM, first compound 10 µM
[33] = second compound 10 µM, first compound 0.316 µM
[34] = second compound 10 µM, first compound 1 µM
[35] = second compound 10 µM, first compound 3.16 µM
[36] = second compound 10 µM, first compound 10 µM
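Also: spheroids exposed to drugs for 7 days before readout.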
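For viability, T/C in this document: 100% = DMSO vehicle control wells.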

CC(C)CC(NC(=O)C(Cc1ccccc1)NC(=O)c1cnccn1)B(O)O (stereo not drawn) + CN1CCN(c2cc(C(=O)Nc3cc4cc(-c5cnn(C)c5)ccc4cn3)ccn2)CC1
IC50 (second compound 0.0316 µM): 1.77 nM | IC50 (second compound 0.1 µM): 0.97 nM | IC50 (second compound 0.316 µM): < 0.949 nM | IC50 (second compound 1 µM): < 0.949 nM | IC50 (second compound 3.16 µM): < 0.949 nM | IC50 (second compound 10 µM): < 0.949 nM | viability, T/C (second compound 0.0316 µM, first compound 0.000949 µM): 92.9% | viability, T/C (second compound 0.0316 µM, first compound 0.003 µM): 13.8% | viability, T/C (second compound 0.0316 µM, first compound 0.00949 µM): 1.49% | viability, T/C (second compound 0.0316 µM, first compound 0.03 µM): 0.54% | viability, T/C (second compound 0.0316 µM, first compound 0.0949 µM): 0.87% | viability, T/C (second compound 0.0316 µM, first compound 0.3 µM): 0.26% | viability, T/C (second compound 0.1 µM, first compound 0.000949 µM): 50.9% | viability, T/C (second compound 0.1 µM, first compound 0.003 µM): 9.76% | viability, T/C (second compound 0.1 µM, first compound 0.00949 µM): 0.72% | viability, T/C (second compound 0.1 µM, first compound 0.03 µM): 0.44% | viability, T/C (second compound 0.1 µM, first compound 0.0949 µM): 0.43% | viability, T/C (second compound 0.1 µM, first compound 0.3 µM): 0.26% | viability, T/C (second compound 0.316 µM, first compound 0.000949 µM): 2.77% | viability, T/C (second compound 0.316 µM, first compound 0.003 µM): 0.46% | viability, T/C (second compound 0.316 µM, first compound 0.00949 µM): 1.45% | viability, T/C (second compound 0.316 µM, first compound 0.03 µM): 0.39% | viability, T/C (second compound 0.316 µM, first compound 0.0949 µM): 0.5% | viability, T/C (second compound 0.316 µM, first compound 0.3 µM): 0.26% | viability, T/C (second compound 1 µM, first compound 0.000949 µM): 0.6% | viability, T/C (second compound 1 µM, first compound 0.003 µM): 0.27% | viability, T/C (second compound 1 µM, first compound 0.00949 µM): 0.45% | viability, T/C (second compound 1 µM, first compound 0.03 µM): 0.53% | viability, T/C (second compound 1 µM, first compound 0.0949 µM): 0.45% | viability, T/C (second compound 1 µM, first compound 0.3 µM): 0.57% | viability, T/C (second compound 3.16 µM, first compound 0.000949 µM): 1.3% | viability, T/C (second compound 3.16 µM, first compound 0.003 µM): 0.5% | viability, T/C (second compound 3.16 µM, first compound 0.00949 µM): 0.68% | viability, T/C (second compound 3.16 µM, first compound 0.03 µM): 0.95% | viability, T/C (second compound 3.16 µM, first compound 0.0949 µM): 0.69% | viability, T/C (second compound 3.16 µM, first compound 0.3 µM): 0.43% | viability, T/C (second compound 10 µM, first compound 0.000949 µM): 0.67% | viability, T/C (second compound 10 µM, first compound 0.003 µM): 0.32% | viability, T/C (second compound 10 µM, first compound 0.00949 µM): 1.9% | viability, T/C (second compound 10 µM, first compound 0.03 µM): 0.44% | viability, T/C (second compound 10 µM, first compound 0.0949 µM): 0.42% | viability, T/C (second compound 10 µM, first compound 0.3 µM): 0.27%

Cn1ncnc1[C@H]1c2n[nH]c(=O)c3cc(F)cc(c23)N[C@@H]1c1ccc(F)cc1 + CN1CCN(c2cc(C(=O)Nc3cc4cc(-c5cnn(C)c5)ccc4cn3)ccn2)CC1
IC50 (second compound 0.0316 µM): > 100 nM | IC50 (second compound 0.1 µM): < 0.316 nM | IC50 (second compound 0.316 µM): < 0.316 nM | IC50 (second compound 1 µM): < 0.316 nM | IC50 (second compound 3.16 µM): < 0.316 nM | IC50 (second compound 10 µM): < 0.316 nM | viability, T/C (second compound 0.0316 µM, first compound 0.000316 µM): 94.8% | viability, T/C (second compound 0.0316 µM, first compound 0.001 µM): 81.4% | viability, T/C (second compound 0.0316 µM, first compound 0.00316 µM): 89.7% | viability, T/C (second compound 0.0316 µM, first compound 0.01 µM): 87% | viability, T/C [1]: 99.8% | viability, T/C [2]: 81.6% | viability, T/C (second compound 0.1 µM, first compound 0.000316 µM): 44.7% | viability, T/C (second compound 0.1 µM, first compound 0.001 µM): 48.4% | viability, T/C (second compound 0.1 µM, first compound 0.00316 µM): 44.7% | viability, T/C (second compound 0.1 µM, first compound 0.01 µM): 48% | viability, T/C [3]: 43.2% | viability, T/C [4]: 37.9% | viability, T/C (second compound 0.316 µM, first compound 0.000316 µM): 2.64% | viability, T/C (second compound 0.316 µM, first compound 0.001 µM): 2.72% | viability, T/C (second compound 0.316 µM, first compound 0.00316 µM): 2.87% | viability, T/C (second compound 0.316 µM, first compound 0.01 µM): 3.16% | viability, T/C [5]: 2.95% | viability, T/C [6]: 2.25% | viability, T/C (second compound 1 µM, first compound 0.000316 µM): 0.47% | viability, T/C (second compound 1 µM, first compound 0.001 µM): 0.71% | viability, T/C (second compound 1 µM, first compound 0.00316 µM): 1% | viability, T/C (second compound 1 µM, first compound 0.01 µM): 0.8% | viability, T/C [7]: 0.52% | viability, T/C [8]: 0.74% | viability, T/C (second compound 3.16 µM, first compound 0.000316 µM): 0.96% | viability, T/C (second compound 3.16 µM, first compound 0.001 µM): 0.86% | viability, T/C (second compound 3.16 µM, first compound 0.00316 µM): 0.88% | viability, T/C (second compound 3.16 µM, first compound 0.01 µM): 0.88% | viability, T/C [9]: 1.01% | viability, T/C [10]: 0.64% | viability, T/C (second compound 10 µM, first compound 0.000316 µM): 0.56% | viability, T/C (second compound 10 µM, first compound 0.001 µM): 0.62% | viability, T/C (second compound 10 µM, first compound 0.00316 µM): 0.88% | viability, T/C (second compound 10 µM, first compound 0.01 µM): 0.76% | viability, T/C [11]: 0.63% | viability, T/C [12]: 0.56%

Nc1ccn(C2OC(CO)C(O)C2(F)F)c(=O)n1 (stereo not drawn) + CN1CCN(c2cc(C(=O)Nc3cc4cc(-c5cnn(C)c5)ccc4cn3)ccn2)CC1
IC50 (second compound 0.0316 µM): < 31.6 nM | IC50 (second compound 0.1 µM): < 31.6 nM | IC50 (second compound 0.316 µM): < 31.6 nM | IC50 (second compound 1 µM): < 31.6 nM | IC50 (second compound 3.16 µM): < 31.6 nM | IC50 (second compound 10 µM): < 31.6 nM | viability, T/C [1]: 22.6% | viability, T/C [2]: 8.64% | viability, T/C [13]: 6.4% | viability, T/C [14]: 7.52% | viability, T/C [15]: 6.95% | viability, T/C [16]: 5.95% | viability, T/C [3]: 13.8% | viability, T/C [4]: 8.73% | viability, T/C [17]: 7.61% | viability, T/C [18]: 7.32% | viability, T/C [19]: 7.36% | viability, T/C [20]: 6.15% | viability, T/C [5]: 1.98% | viability, T/C [6]: 2.23% | viability, T/C [21]: 2.31% | viability, T/C [22]: 2.07% | viability, T/C [23]: 1.76% | viability, T/C [24]: 1.74% | viability, T/C [7]: 0.86% | viability, T/C [8]: 0.6% | viability, T/C [25]: 1.16% | viability, T/C [26]: 0.96% | viability, T/C [27]: 0.79% | viability, T/C [28]: 0.99% | viability, T/C [9]: 0.84% | viability, T/C [10]: 0.93% | viability, T/C [29]: 0.9% | viability, T/C [30]: 0.86% | viability, T/C [31]: 1.01% | viability, T/C [32]: 0.93% | viability, T/C [11]: 0.55% | viability, T/C [12]: 0.43% | viability, T/C [33]: 0.48% | viability, T/C [34]: 0.64% | viability, T/C [35]: 0.74% | viability, T/C [36]: 0.72%

O=C(c1cc(Cc2n[nH]c(=O)c3ccccc23)ccc1F)N1CCN(C(=O)C2CC2)CC1 + CN1CCN(c2cc(C(=O)Nc3cc4cc(-c5cnn(C)c5)ccc4cn3)ccn2)CC1
IC50 (second compound 0.0316 µM): > 10000 nM | IC50 (second compound 0.1 µM): 633 nM | IC50 (second compound 0.316 µM): < 31.6 nM | IC50 (second compound 1 µM): < 31.6 nM | IC50 (second compound 3.16 µM): < 31.6 nM | IC50 (second compound 10 µM): < 31.6 nM | viability, T/C [1]: 88.1% | viability, T/C [2]: 95.5% | viability, T/C [13]: 85.7% | viability, T/C [14]: 94.9% | viability, T/C [15]: 96.2% | viability, T/C [16]: 74.6% | viability, T/C [3]: 51.3% | viability, T/C [4]: 50.5% | viability, T/C [17]: 50.9% | viability, T/C [18]: 50.6% | viability, T/C [19]: 45% | viability, T/C [20]: 35.2% | viability, T/C [5]: 2.72% | viability, T/C [6]: 3.01% | viability, T/C [21]: 2.89% | viability, T/C [22]: 3.34% | viability, T/C [23]: 3.07% | viability, T/C [24]: 2.03% | viability, T/C [7]: 0.78% | viability, T/C [8]: 1.06% | viability, T/C [25]: 0.79% | viability, T/C [26]: 0.54% | viability, T/C [27]: 0.67% | viability, T/C [28]: 0.77% | viability, T/C [9]: 1.02% | viability, T/C [10]: 0.99% | viability, T/C [29]: 1.13% | viability, T/C [30]: 1.07% | viability, T/C [31]: 2.34% | viability, T/C [32]: 1.07% | viability, T/C [11]: 0.83% | viability, T/C [12]: 0.87% | viability, T/C [33]: 0.89% | viability, T/C [34]: 1.19% | viability, T/C [35]: 1.06% | viability, T/C [36]: 0.83%
